The nature of the series: Solid form stability under exposure to water / humidity. Type of series: physicochemical.

For `CN(C)C/C=C/C(=O)Nc1cc2c(Nc3ccc(F)c(Cl)c3)ncnc2cc1O[C@H]1CCOC1.O=C(O)/C=C\C(=O)O.O=C(O)/C=C\C(=O)O` [Afatinib dimaleate Form A, afatinib dimaleate], the “completely converts to a hydrated species” value (40° C., 75% RH) is on record as at most 11 days.

Turning to `CN(C)C/C=C/C(=O)Nc1cc2c(Nc3ccc(F)c(Cl)c3)ncnc2cc1O[C@H]1CCOC1.O=C(O)/C=C\C(=O)O.O=C(O)/C=C\C(=O)O` [Form Z, afatinib dimaleate], the “stability compared with afatinib dimaleate Form A” value (40° C., 75% RH) is “more stable than afatinib dimaleate Form A”. The “stable under exposure to water vapor under ambient conditions” value (about 25° C., >90% RH) is “about 3 days”. The “stable at about 40° C., 75% RH” value (about 40° C., 75% RH) was “over 19 days”. Also, the “stability under exposure to water” value (exposure to water) is “stable under exposure to water”.

Values taken from US11136314B2, “Forms of afatinib dimaleate” (Johnson Matthey Public Limited Company, priority 2017, dated 2021).
